From patent publication US20240208961A1, “EIF4E INHIBITORS AND USES THEREOF” (PIC Therapeutics, Inc., priority 2022, published 2024)

Tests used:
ZR-75-1 tumor = assay: ZR-75-1 subQ CDX model; type: in vivo; conditions: female BALB/c nude mice, 50 mg/kg, PO, QW, FIG. 14
Experimental: Female BALB/c nude mice were inoculated with estrogen tablets (0.36 mg/pellet, 60 days to release) 48 hours before cell inoculation. The xenograft model was established by implantation of […] of ZR-75-1 tumor cell suspension (5×10^6 cells/mouse, with 50% Matrigel) subcutaneously into the right subaxillary of female BALB/c nude mice aged 6-8 weeks. When the average tumor volume reached 153.10 mm^3, the tumor-bearing mice were randomized into treatment groups. The groups were treated as follows: Group 1: vehicle, PO, QW; Group 2: Tamoxifen 10 mg/kg, PO, QD; Group 3: Compound I-11 50 mg/kg, PO, QW.
Cell culture: The ZR-75-1 (breast, ductal carcinoma) cell was purchased from (ATCC® CRL-1500™). The base medium for this cell line ATCC-formulated RPMI-1640 Medium. To make the complete growth medium, the base medium was supplemented with 10% heat inactivated FBS and 1% PS, maintained at 37° C. in an atmosphere containing 5% CO2 in air. The tumor cells were routinely subcultured at a ratio of 1:1.5 to 1:3 every 3-6 days. Cell concentration at harvest time was 5.39×10^7 cells/mL and cell viability was 94.3% before inoculation.
Tumor inoculation: BALB/c nude mice were used in this study. Each mouse was inoculated with estrogen tablets 48 hours before cell inoculation (0.3 mg/pellet, 60 days to release). […]

MCL-1 protein = MCL-1 protein (eIF4E regulated) levels in multiple myeloma cell line MM.1R (FIG. 11B); type: cell-based; conditions: MM.1R cells, 2 hours
MM.1S cells = assay: 5 day viability assay in MM.1S cells, I-11 and dexamethasone (Example 7); type: cell-based
Experimental: (§1) Compound I-11 was studied in the context of dexamethasone combinations, which is used clinically in early Multiple Myeloma prior to the emergence of steroid resistance and is a common backbone therapy. The MM.1S cell line is a steroid sensitive line, and the MM.1R line is the corresponding cell line which has been driven to steroid resistance. The procedure for these studies was as follows:
(§2) Day 1: Cell Seeding and Compound Dosing
(§3) • Cells were seeded 2×10^5 in 96-well cell culture treated tissue culture plates: 87.5 μL/well; MM.1 S and MM.1R • A 5-fold serial dilution of each compound in DMSO (0-25 mM) was prepared in compound storage plates (stored at −80° C. if not to be used immediately). An 8-point curve was used for compound I-11, and a 6-point curve was used for dexamethasone (0-25 mM). • Cells were rinsed with 1% FBS Media and replaced with 87.5 μL media prior to dosing. • DMSO compound dilution series was diluted in 1% FBS media—2 μL compound in 123 μL media to give a 16× final concentration. Dosing across the plate columns 1-12 (compound I-11 0-400 μM), 6.25 μL 16× in media/well. Dosing down plate rows (columns 1-6 dexamethasone 0-400 μM), 6.25 μL 16× compound in media per well. • Cells were dosed with 12.5 μL for both compounds, with 2 replicates of dosing matrix per 96-well plate. Final volume cells and compound was 100 μL/well. • Media blank 100 μL/well×8 was set up. • All plates were incubated at 37° C.
(§4) Day 6: 5 Day Viability Assay
(§5) • Alamar Blue viability reagent was added (10 μL per well) and incubated for 3 hours at 37° C. prior to fluorescence detection (Ex560 nm/Em590 nm) on a Varioskan Lux multimode plate reader.

4E-BP1 = assay: Hyperphosphorylation of 4E-BP1 in multiple myeloma cell line MM.1R (FIG. 11A); type: cell-based; conditions: MM.1R cells, 2 hours
MM.1R cells = assay: 5 day viability assay in MM.1R cells, I-11 and dexamethasone (Example 7); type: cell-based
Experimental: as §1, §2, §3, §4, §5

CC(C)Cc1sc(Nc2ncc(-c3cccs3)cc2C(=O)O)nc1C(C)(C)C [Compound I-11]
tumor size growth (ZR-75-1 tumor): reduced tumor size growth | MCL-1 protein (eIF4E regulated) levels (MCL-1 protein): reduces | IC50 (MM.1S cells; Homo sapiens, MM1.S, 120 h, MM.1S cells (steroid sensitive), 5 days, Alamar Blue, read-out: IC50 (μM), Viability Assessment (5 Days) in MM.1S Cells): 0.423 µM | viability of MM.1S cells (MM.1S cells; MM.1S cells, FIG. 12): significant decreases in viability | impact on viability in combination with dexamethasone (MM.1S cells; MM.1S cells, dosing matrix I-11 x dexamethasone, FIG. 13): additive to dexamethasone | relative levels of hyperphospho-4E-BP1 (4E-BP1): significantly lowers relative levels of hyperphospho-4E-BP1 | IC50 (MM.1R cells; 120 h, MM.1R cells (steroid resistant), 5 days, Alamar Blue, read-out: IC50 (μM), Viability Assessment (5 Days) in MM.1R Cells): 0.179 µM | viability of MM.1R cells (MM.1R cells; MM.1R cells, FIG. 12): significant decreases in viability
